# Source: ChEMBL document CHEMBL1156774, “Design of O-acetylserine sulfhydrylase inhibitors by mimicking nature” (J Med Chem, 2010)
# Key:
# [1] = target: T1, Cysteine synthase (Haemophilus influenzae (strain ATCC 51907 / DSM 11121 / KW20 / Rd)) (UniProt P45040); experiment: (§1) Binding affinity to Haemophilus influenzae O-acetylserine sulfhydrylase expressed in Escherichia coli BL21 (DE3) by fluorescence emission spectra analysis
# T1 sequence (whole entry): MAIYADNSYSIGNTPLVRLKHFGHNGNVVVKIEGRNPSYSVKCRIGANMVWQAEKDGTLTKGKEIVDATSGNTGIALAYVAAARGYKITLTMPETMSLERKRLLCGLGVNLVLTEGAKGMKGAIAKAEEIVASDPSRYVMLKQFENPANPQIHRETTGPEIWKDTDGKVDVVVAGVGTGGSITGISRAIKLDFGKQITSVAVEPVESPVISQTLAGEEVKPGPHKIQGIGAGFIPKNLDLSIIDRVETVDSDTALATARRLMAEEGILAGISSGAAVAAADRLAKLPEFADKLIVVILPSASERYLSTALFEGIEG
# Cysteine synthase = target: T2, Cysteine synthase (Haemophilus influenzae (strain ATCC 51907 / DSM 11121 / KW20 / Rd), UniProt P45040); experiment: as §1
# T2 sequence (P45040 whole entry): T1 sequence (whole entry)
Substance,Kdiss [1],Kd (Cysteine synthase)
H-MNDGI-OH,1030 µM,1020 µM
H-MNEGI-OH,2270 µM,2290 µM
H-MNLGI-OH,570 µM,575 µM
H-MNVPI-OH,3330 µM,3310 µM
H-MNYSI-OH,60.8 µM,60.3 µM
